Assay results: PubChem BioAssay AID540260 (Sanford-Burnham Center for Chemical Genomics, 2011)
Calls of active or inactive are those of the source. No rule for the calls is given here.

Biological target: Alkaline phosphatase, placental type (Homo sapiens) (UniProt P05187)
Assay: PLAP enzyme inhibition by analogs, SAR follow-up, selectivity assay for human IAP inhibitor project, biochemical, human PLAP isozyme, set 2 (AID 540260)
Conditions: purified placental alkaline phosphatase enzyme activity

IC50 | SMILES
> 100 µM (inactive) | Cc1ccc(C)c(NC(=O)CCNS(=O)(=O)c2ccc3[nH]c(=O)oc3c2)c1
> 100 µM (inactive) | COc1ccc(NC(=O)CNS(=O)(=O)c2ccc3[nH]c(=O)oc3c2)cc1OC
> 100 µM (inactive) | O=C(CNS(=O)(=O)c1ccc2[nH]c(=O)oc2c1)NCc1ccc2c(c1)OCO2
> 100 µM (inactive) | N#Cc1ccc(CNC(=O)CCNS(=O)(=O)c2ccc3[nH]c(=O)oc3c2)cc1
> 100 µM (inactive) | O=C(CNS(=O)(=O)c1ccc2[nH]c(=O)oc2c1)Nc1ccc2c(c1)OCO2
